The compounds below were run on P. falciparum 3D7 growth, pLDH absorbance (assay: blood-stage malaria parasite growth potency – strain 3D7, dose response (AID 2305)).

SMILES	IC50 [nM]
COc1cc(NC(=O)c2cccs2)c(C(=O)NCc2ccc(C)cc2)cc1OC	1360
O=C(Nc1ccc(C(F)(F)F)cc1)c1ccc(S(=O)(=O)NC2CCN(CC3CCCCC3)CC2)cc1	730
O=C(Nc1cc(F)cc(F)c1)N[C@H]1CCN(CCCCCNC(=O)[C@@H]2C[C@H]2c2ccc(Cl)c(Cl)c2)C1	1080
O=C(Nc1ccc2c(c1)OCO2)NC1CCN(c2ccnc(Nc3ccc(F)cc3)n2)C1 (stereo not given)	740
O=C(Nc1ccc(OC2CCN(Cc3ccsc3)C2)c(Cl)c1)c1ccsc1 (stereo not given)	1020
Cc1cccc(-c2nc(Nc3ccncc3)c3cc(N(C)C)ccc3n2)n1	710
CC(C)CN1CCC(COc2ccc3ncn(-c4cc(O[C@H](C)c5ccccc5C(F)(F)F)c(C(N)=O)s4)c3c2)CC1	620
CC(CN(C)C)C(=O)Nc1ccc(-c2ccc(-c3nc4ccccc4[nH]3)cc2)cc1 (stereo not given)	740
O=C(Cc1cccc(O)c1)NCC(Cc1ccc(O)cc1)c1ccccc1 (stereo not given)	640
COc1ccccc1/C=C/C(=O)NC1CCC(CCN2CCc3ccc(-c4cc(C)no4)cc3CC2)CC1 (stereo not given)	960
CCc1ccc(CN2CCC(CNC(=O)c3cc(-c4ccccc4Cl)cs3)C2)cc1 (stereo not given)	1430
COc1cccc(Cc2cnc3nc(N)nc(N)c3c2C)c1	170
CC(C)CCN(Cc1cncn1Cc1ccccc1F)C(=O)c1cncc(-c2ccccc2)c1	790
Cc1[nH]c2ccc(O)cc2c1C1CCN(CC2CCC(NC(=O)/C=C/c3ccc(Cl)c(Cl)c3)CC2)CC1 (stereo not given)	760
O=C(/C=C/c1ccc(Cl)c(Cl)c1)NCCCCCN1CCCN(C(=O)Nc2ccc(C(F)(F)F)cc2)CC1	690
CC(C)(C)c1ccc(OCC(=O)NC2CCN(c3ccnc4cc(Cl)ccc34)C2)cc1 (stereo not given)	130
CC(C)(C)c1cc(N=NC(=O)c2ccncc2)cc(C(C)(C)C)c1O	700
O=C(NC1CCN(Cc2cccc(C(F)(F)F)c2)CC1)c1ccc(-c2cccc(Cl)c2)s1	1130
CCN(CC)CCCN(C(=O)c1cc2c(C)nn(-c3ccccc3)c2s1)c1nc(-c2ccc(OC)cc2)cs1	1150
CN(C)CCCN1C(=O)c2[nH]nc(-c3ccc(Cl)cc3O)c2C1c1ccc(Cl)cc1 (stereo not given)	760
CCN(CCCN1CCCCC1)c1cc(C)nc(Nc2cc(Br)ccc2C)n1	410
O=C(CSc1nc(-c2ccccc2Cl)ns1)Nc1ccc2c(c1)OCO2	990
O=C(Nc1nc2cc(S(=O)(=O)NCc3ccc(Cl)c(Cl)c3)ccc2n1CCCn1ccnc1)c1ccc(Cl)cc1	730
CC(C)[C@H](NC(=O)c1ccc(O)c(-c2cccc(C(F)(F)F)c2)c1)C(=O)NCCN1CCCCC1	840

SMILES	IC50 [nM]
O=S(=O)(c1ccc(OCc2ccc(Cl)cc2)cc1)c1cc2c(cc1OCc1ccccc1)CCN(C1CCC1)CC2	1020
NC(N)=Nc1nc(-c2ccc(NC(=O)Nc3cccc(-c4csc(N=C(N)N)n4)c3)cc2)cs1	1010
CN(C)C(=NCCCCCCN=C(/N=C(/N)Nc1ccc(Cl)cc1)N(C)C)/N=C(/N)Nc1ccc(Cl)cc1	530
Cc1ccc2nc(-c3ccc(C=CC(=O)NCc4ccc(Cl)c(Cl)c4)cc3)[nH]c2c1	900
Cc1cccc2[nH]c(-c3ccc(-c4ccc(CNCc5ccc(CN)cc5)cc4)s3)nc12	440
CCc1c(C)nc(-n2nc(C)cc2NC(=O)C2c3ccccc3Oc3ccccc32)[nH]c1=O	950
O=C(/C=C/c1ccsc1)NC1CCC(CN2CCC(c3c[nH]c4ccccc34)CC2)CC1 (stereo not given)	1120
CC(Cc1ccc(OCC(=O)NCC2CCN(CCc3cccc(Cl)c3)CC2)cc1)NCCc1cccc(Cl)c1 (stereo not given)	660
CN1CCCN(Cc2cccc(-c3ccc(NC(=O)c4ccc(Cl)cc4)cc3)c2)CC1	720
CS(=O)(=O)CCOCc1ccc(-c2ccc3ncnc(Nc4ccc(OCc5cccc(F)c5)c(Cl)c4)c3c2)o1	800
CCCN(CCC)S(=O)(=O)c1ccc(C(=O)N2CCC(C(=O)OCC)CC2)cc1	800
COc1ccc(CCON2C(N)=NC(N)=NC2(C)C)cc1OC	10
CCOC(=O)NOC(C(=O)O)c1ccccc1 (stereo not given)	190
CC(C)(C)c1ccc(CNC(=O)COc2ccc(-c3nnc(-c4cccc([N+](=O)[O-])c4)o3)cc2[N+](=O)[O-])cc1	930
Clc1nc(Cl)c2c(ccn2Cc2ccccc2)n1	790
CC1CCN(CC[C@H]2CCCN2S(=O)(=O)c2cccc(NC(=O)c3ccc(-c4ccc(Cl)cc4)o3)c2)CC1	690
Cc1[nH]c(C)c(-c2ccc(OCc3ccc(OC(F)(F)F)cc3)nc2)c(=O)c1Br	140
CO/C(=C\C=C\c1cc2cc(Cl)c(Cl)cc2[nH]1)C(=O)NCCCN1CCN(c2ccncc2)CC1	730
NC(N)=NN=CC(=O)Nc1ccc(Cl)c(C(F)(F)F)c1	890
CC(C)c1ccc(CN2CCC(NC(=O)c3ccc(-c4cccc(Cl)c4)s3)CC2)cc1	1430
CN(Cc1cccc(O)c1)C1CCN(c2cc(NC(=O)c3ccc(F)cc3)ccn2)C1 (stereo not given)	1150
Oc1ccc(CCCNc2nc(NCc3ccccc3-c3ccccc3)nc(NC3CCNCC3)n2)cc1	860
CN(Cc1cccc(C#N)c1)C1CCN(c2cc(NC(=O)c3cccc(F)c3)ccn2)CC1	930
O=C(/C=C/c1ccc(Cl)c(Cl)c1)N1CCN(C(=O)Nc2ccc(F)c(Cl)c2)CC1	720

SMILES	IC50 [nM]
CN(C)Cc1cccc2[nH]c(-c3csc(Cc4cc(Cl)ccc4OCc4ccccc4)n3)nc12	1120
N#Cc1ccc(NC(=O)Nc2ccc(OC(F)(F)F)cc2)cc1	820
CCCCN=C(N)Nc1ccc(OCCCOc2ccc(NC(N)=NCCCC)cc2)cc1	160
CN(C(=O)C(C)(C)Oc1ccc(Cl)cc1)C1CCN(CCCCCNC(=O)/C=C/c2ccc(Cl)c(Cl)c2)CC1	920
O=C(Nc1cccnc1)c1ccc(-c2cc3ccncc3cc2OC2CCNCC2)s1	880
Clc1ccc2nccc(N3CCC(CN4CCC(c5c[nH]c6ccccc56)CC4)CC3)c2c1	30
COc1ccc(-c2nc(NC(=O)Cc3coc4cc(OC)ccc34)sc2C)cc1	610
CC(C)c1ccc2c(c1)c(SC(C)(C)C)c(CC(C)(C)C#N)n2Cc1ccc(Cl)cc1	220
O=C(NCC1CCN(Cc2ccc3c(c2)OCCO3)C1)c1cc(-c2cccc(C(F)(F)F)c2)cs1 (stereo not given)	980
N#Cc1ccc(S(=O)(=O)N2C(c3cccc([N+](=O)[O-])c3)C(C(=O)c3ccccc3)N(C3CCCCC3)C2c2cccc([N+](=O)[O-])c2)cc1 (stereo not given)	1080
O=C(/C=C/c1c(Cl)cccc1Cl)NC1CCC(CN2CCC(Cc3cc4ccccc4[nH]3)CC2)CC1 (stereo not given)	970
CN(C)CCN(C)Cc1ccc(-c2ccc3c(Nc4ccc(Oc5ccccc5)cc4)ccnc3c2)o1	180
Fc1ccc(-c2nc(NCc3cccc(C(F)(F)F)c3)nn2-c2cccc(C(F)(F)F)c2)cc1C(F)(F)F	1050
CC(=O)c1cccc2cc(C(=O)NC3CCC(CCN4CCc5ccc(C#N)cc5C4)CC3)[nH]c12 (stereo not given)	790
O=C(Nc1ccc(Cn2ncc(N3CCCNCC3)c(Cl)c2=O)cc1)Nc1ccc(F)cc1[N+](=O)[O-]	1100
COc1cccc(NC(=O)c2cc(Br)cc(N3CCN(c4ccncc4)CC3)c2)c1	770
O=C(CNc1ccc(Cl)c(S(=O)(=O)N2CCCC2)c1)Nc1ccc(Br)cc1F	320
Cc1cc(CN2CCC(N3CC(c4ccccc4)(c4ccccc4)OCC3=O)C2)ccc1O (stereo not given)	1080
O=C(Nc1cccc(N2CCC(NCc3cccnc3)CC2)c1)c1cccc(C(F)(F)F)c1	970
CNCC(C)(C)c1nc(-c2ccc(Cl)c(O)c2)c(-c2ccncc2)[nH]1	740
COc1ccc(C(O)CNC(C)CCc2ccccc2)cc1C(F)(F)F (stereo not given)	70
N#CC1(c2ccccc2)CCN(c2nc(NCCCN3CCCC3=O)nc(N3CCCC4CCCCC43)n2)CC1 (stereo not given)	860
CC(=NN=C(N)N)C(=O)Nc1ccc(Cl)c(Cl)c1	170
N#Cc1ccc(-c2ccc(C(=O)NC3CCN(CCN4CCc5c(cccc5C(F)(F)F)C4)CC3)cc2)cc1	700

SMILES	IC50 [nM]
Clc1ccc(CNc2ccnc(NCCc3coc4ccccc34)n2)c(Cl)c1	1170
c1ccc2[nH]c(-c3ccc(-c4ccc(CN5CCN(c6ccncc6)CC5)cc4)cc3)nc2c1	160
CNCCNCc1ccc(-c2cccc(-c3nc4ccc(C(F)(F)F)cc4[nH]3)c2)cc1	630
COC(=O)c1cccc(CNCc2ccc(-c3ccc(-c4nc5ccc(C(F)(F)F)cc5[nH]4)s3)cc2)c1	160
CC(=O)Oc1cc(C)ccc1C1CCN(CCCCNC(=O)c2ccc(-c3ccc(C(F)(F)F)cc3)cc2)CC1	650
CCC1CCCCN1S(=O)(=O)c1ccc(OC)c(N2CCN(C(=O)C(Cl)(Cl)Cl)CC2)c1 (stereo not given)	1120
CCCCCCC(C)(C)c1cc(O)c2c(c1)OC(C)(C)c1ccncc1-2	180
COc1ccc2c(=O)c(I)c(C)[nH]c2c1	440
CC(=O)Nc1ncc(C(=O)Nc2cccc(-c3cccc(-c4nc5c(C)cccc5[nH]4)c3)c2)s1	350
OCCN1CCN(Cc2ccc(-c3ccc(-c4nc5ccccc5[nH]4)cc3)cc2)CC1	620
COc1cc(CN=C(Nc2ccc(-c3ccccc3)cc2)Nc2ccc(C#N)cc2O)cc(OC)c1	720
O=C(NCCCCN1CCC(c2ccc3c(c2OCC2COCO2)CCCC3)CC1)c1ccc(-c2ccc(C(F)(F)F)cc2)cc1 (stereo not given)	870
Cn1c(=N)n(CC(=O)OCc2ccc(OCc3ccccc3)cc2)c2ccccc21	80
COc1ccc2ncc(F)c(NC(=O)C3CCC(NCc4cc5cc(F)cc(F)c5[nH]4)CC3)c2n1 (stereo not given)	1090
O=C(NCCN1CCC(NC(=O)c2ccc(-c3ccccn3)s2)CC1)c1cccc(C(F)(F)F)c1	860
CC(C)CCN1CCCN(Cc2cccc(NC(=O)c3cc4ccccc4s3)c2)CC1	920
COc1cccc(CC(=O)NC2CCN(c3ccnc4cc(Cl)ccc34)C2)c1 (stereo not given)	700
CCCCCCn1c2c(c(=N)c3c1CCC3)CCC2	180
COC(=O)Nc1cc(C(F)(F)F)ccc1N1CCC(CNS(=O)(=O)c2ccc(OC)cc2)CC1	250
O=C(NCc1cccs1)[C@H](Cc1ccccc1)Nc1ccnc(NCC2CCCCC2)n1	1050
CN1CCC(NCCS(=O)(=O)c2cccc(Nc3ccc(-c4cccc(F)c4)cn3)c2)CC1	1360
O=C(NCCc1ccccc1)c1cc(-c2cccnc2)cnc1NCC1CC1	850
CC(C)(CNC(=O)[C@@H]1CCCN(CCOc2ccc(Cl)cc2)C1)c1nc(-c2ccc(Cl)c(O)c2)c(-c2ccncc2)[nH]1	880

Reference: PubChem BioAssay AID2305 (GlaxoSmithKline (GSK), 2010)
